# Test results published in US11331328B2, “Compositions and methods for inhibiting antiapoptotic Bcl-2 proteins as anti-aging agents” (priority 2014, dated 2022).
# Experiments:
# [1] = system: bone marrow HSCs; test: Single HSC culture clonogenic activity in vitro; type: cell-based, mouse; details: 1.25 μM ABT263
# Experimental: Freshly prepared medium was added every 3 days, Two weeks later, the numbers of cells produced by each HSC were counted.
# [2] = system: IL-1α, TNFα, CCL-5, CXCL-10 mRNA; test: SASP mRNA levels in lungs of TBI p16-3MR mice (qRT-PCR); type: in vivo, mouse; details: 6 Gy TBI; 2 treatment cycles
# Experimental: To measure p21 and GAPDH mRNA levels in WI-38 cells and IL-1α, TNFα, CCL-5, and CXCL-10 mRNA levels in mouse tissues, SYBR assay kit was used (Applied biosystems in life technologies). Briefly, 1 μl cDNA was mixed with 7.5 μl SYBR Green PCR Master Mix and 0.2 μl of primers (Table 5). Samples were then added with 6.30 μl of H2O to give a total 15 μl of mixture. qPCR conditions were as follows: 95° C. for 10 min, 40×(95° C. for 15 s and 60° C. for 1 min), 95° C. for […], 95° C. for 15 min. All reactions were run in triplicate on an ABI StepOnePlus Real-Time PCR System.
# [3] = system: human IMR-90 fibroblasts; test: Cell viability, IR-SC vs NC, IMR-90 fibroblasts; type: cell-based; details: increasing concentrations, 72 h
# Experimental: (§1) Human WI-38 fibroblasts (WI38 cells, #CCL-75™), human IMR-90 fibroblasts (IMR90 cells, #CCL-186™), human renal epithelial cells (REC cells, #PCS-400-012™) were obtained from ACTT (Manassas, Va., USA). Mouse embryonic fibroblasts (MEF) were isolated from mouse embryos as described^1. All cells were cultured in a complete medium (CM) (Dulbecco's Modified Eagle Medium supplemented with 10% fetal bovine serum [FBS], 100 U/ml penicillin, and 100 μg/ml streptomycin [all from Atlanta Biologicals, Norcross, Ga., and USA]) in a humidified incubator at 37° C. and 5% CO2. Low passages of WI-38 cells (<25), IMR-90 (<25), REC cells (<25) and MEF (<3) were used as non-senescent controls or for induction of senescence to avoid replicative senescence. To induce replicative senescence, WI-38 cells were subcultivated until cell division ceased after about 38 passages or 60 population doublings (FIG. 5)^2. […]
# (§2) Flow cytometry: Non-senescent and senescent cells were seeded into wells of 24- or 48-well at about 70% of confluence. […] Viable cells (PI^− cells) were numerated by flow cytometry at a constant flow rate and calculated as a percentage of control cells treated with vehicle using the formula: percentage of control=(Ndrug/NC)×100, where Ndrug and NC represent the absolute number of PI^− viable cells of drug-treated and vehicle-treated cells, respectively.
# [4] = system: senescent WI38 cells induced by expression of oncogenic Ras (Ras-SC); test: Cell viability, LD50 in oncogenic Ras-induced senescent WI-38 cells; type: cell-based, human; details: Table 2
# Experimental: as §1
# as §2, with “respectively. […]” for “respectively.”
# [5] = system: caspase 3, caspase 8; test: Western blot analysis of caspase activation; type: cell-based, human; details: IR-SC WI-38; 1.25 μM ABT263, 24 h
# Experimental: Cells (1×10^6) were lysed in 100 μl lysis buffer (20 mM Tris-HCl, pH 7.4, 150 mM NaCl, 1 mM EDTA. 1 mM EGTA, 10% glycerol, 1.0% NP-40, 0.1 M NaF, 1 mM DTT, 1 mM PMSF, 1 mM NaVO4, 2 μg/ml leupeptin and aprotinin) for 30 min on ice, and cell extracts were sonicated 3 times (5 secs each time) on ice with a 25-sec interval in between using a Sonic Dismembrator Ultrasonic Convertor (Model F60, from Fisher, Pittsburgh, Pa., USA). The protein concentrations were quantified using the Bio-Rad Dc protein assay kit (Bio-Rad Laboratories, Hercules, Calif., USA). Equal amounts of protein (25-50 μg/lane) from each extract was resolved on 12% SDS-PAGE gels. Proteins were blotted to NOVEX NC membranes (Life Technologies, Carlsbad, Calif., USA). The membranes were blocked with TBS-T (5% nonfat milk in 25 mM Tris-HCl, pH 7.4. 3 mM KCl, 140 mM NaCl, and 0.05% Tween) and subsequently probed with primary antibodies at a predetermined optimal concentration as indicated in Supplementary Table 3 overnight at 4° C. or for 1 h at room temperature. […] After three washes with TBS-T, the blots were detected using the ECL Western Blotting Detection Reagents (Cat #WBKLS0100) (EMD MILLIPORE. Newmarket, Suffolk, UK) and recorded by exposure of the blots to X-ray film (Pierce Biotech, Rockford, Ill., USA).
# [6] = system: human renal epithelial cells (REC); test: Cell viability, IR-SC vs NC, renal epithelial cells; type: cell-based; details: increasing concentrations, 72 h
# Experimental: as §1, §2
structure (smiles),measurement,setting,value
"CC1(C)CCC(c2ccc(Cl)cc2)=C(CN2CCN(c3ccc(C(=O)NS(=O)(=O)c4ccc(N[C@H](CCN5CCOCC5)CSc5ccccc5)c(S(=O)(=O)C(F)(F)F)c4)cc3)CC2)C1 [ABT263, navitoclax]",clonogenicity of BM HSCs in vitro,[1]; HSCs from control unirradiated mice,had little effect on the clonogenicity of BM HSCs from control unirradiated mice
same,clonogenicity of BM HSCs in vitro,[1]; HSCs from irradiated mice,markedly reduced the clonogenicity of BM HSCs from irradiated mice
same,SASP in lungs,[2],suppressed the SASP induced by TBI
same,"viable cells, IR-SC vs NC",[3],kills IR-induced senescent cells (IR-SC) but not non-senescent cells (NC)
same,LD50,[4],0.62 µM
same,caspase activation,[5],"SCs activated caspase 3, but not caspase 8"
same,"viable cells, IR-SC vs NC",[6],kills IR-induced senescent cells (IR-SC) but not non-senescent cells (NC)
